For one assay, the system named is MRSA. Kind of assay: Test A antibacterial assay, broth microdilution MIC. The class given is cell-based. Conditions: Staphylococcus aureus, read-out: MIC MRSA. How it is done: (§1) Antibacterial activity can be determined as per Clinical and Laboratory Standards Institute (CLSI) guidelines using a broth microdilution assay in which log-phase bacteria are grown at 37° C. in appropriate medium containing two-fold serial dilutions of a compound to yield final concentrations ranging from 256 to 0.06 μg/mL. For determination of minimal inhibitory concentration (MIC) values, bacterial growth is monitored after 24 to 48 hours by measuring optical density at 600 nm.
On the technique in general: Dilution methods test growth across graded concentrations, often in twofold steps.

In a further assay the test system is MSSA. The description is as above. Format: cell-based. Conditions: Staphylococcus aureus, read-out: MIC MSSA. How it is done:
as §1

Setting [1] is: MIC determined in the presence of 50% mouse serum.
Setting [2] is: MIC values may be lower as solubility and aggregate formation may reduce observed activity.

Converted amounts (≈) assume the structure as drawn. Like-named read-outs stand apart in the source and are kept apart here. Where only a bound is given, the exact number is not on record here.

With `O=CNC(=O)c1c(F)ccc(OCc2nc3cc(Cl)ccc3s2)c1F` [Example 1], the MIC in the assay on MRSA was determined as 0.125 µg/mL (≈ 0.327 µM); with MSSA, 0.25 µg/mL (≈ 0.653 µM). With `CN(C)/C=N/C(=O)c1c(F)ccc(OCc2nc3cc(Cl)ccc3s2)c1F` [Example 1b, 3-((5-Chlorobenzo[d]thiazol-2-yl)methoxy)-N-((dimethylamino)methylene)-2,6-difluorobenzamide], the MIC in the assay on MRSA and with MSSA was 0.125 µg/mL (≈ 0.305 µM) each time. Consider `CC(=O)NC(=O)c1c(F)ccc(OCc2nc3cc(Cl)ccc3s2)c1F` [Example 2], for which the results for the MIC with MRSA and in the assay with MSSA were 4 µg/mL (≈ 10.1 µM) and 2 µg/mL (≈ 5.04 µM), respectively. In the case of `C/C(=N\C(=O)c1c(F)ccc(OCc2nc3cc(Cl)ccc3s2)c1F)N(C)C` [Example 2a, 3-((5-Chlorobenzo[d]thiazol-2-yl)methoxy)-N-(1-(dimethylamino)ethylidene)-2,6-difluorobenzamide], the MIC is 4 µg/mL (≈ 9.44 µM) with MRSA and 2 µg/mL (≈ 4.72 µM) in the assay with MSSA. For the compound `O=CNC(=O)c1c(F)ccc(OCc2nc3cc(Cl)cnc3s2)c1F` [Example 3], the MIC in the assay on MRSA and with MSSA was 0.5 µg/mL (≈ 1.3 µM) in each case.

Take `CN(C)/C=N/C(=O)c1c(F)ccc(OCc2nc3cc(Cl)cnc3s2)c1F` [Example 3b, 3-((6-Chlorothiazolo[5,4-b]pyridin-2-yl)methoxy)-N-((dimethylamino)methylene)-2,6-difluorobenzamide]: the MIC was found to be 1 µg/mL (≈ 2.43 µM) with MRSA and 0.5 µg/mL (≈ 1.22 µM) in the assay on MSSA.

Consider `CC(=O)NC(=O)c1c(F)ccc(OCc2nc3cc(Cl)cnc3s2)c1F` [Example 4], for which the MIC in the assay with MSSA (setting [1]) is 2 µg/mL.

For `C/C(=N\C(=O)c1c(F)ccc(OCc2nc3cc(Cl)cnc3s2)c1F)N(C)C` [Example 4a, 3-((6-Chlorothiazolo[5,4-b]pyridin-2-yl)methoxy)-N-(1-(dimethylamino)ethylidene)-2,6-difluorobenzamide], the MIC in the assay with MRSA and in the assay with MSSA was 4 µg/mL (≈ 9.41 µM) each time. As to `CCCC(=O)NC(=O)c1c(F)ccc(OCc2nc3cc(Cl)ccc3s2)c1F` [Example 6], the MIC with MRSA (setting [2]) turned out to be 1 µg/mL (≈ 2.35 µM); with MSSA (setting [2]) it was 0.5 µg/mL (≈ 1.18 µM). `O=C(NC(=O)C1CCCCC1)c1c(F)ccc(OCc2nc3cc(Cl)ccc3s2)c1F` [Example 7]: in the assay with MSSA (setting [2]), the MIC was 0.5 µg/mL (≈ 1.08 µM). Turning to `CN1CCC(C(=O)NC(=O)c2c(F)ccc(OCc3nc4cc(Cl)ccc4s3)c2F)CC1` [Example 8], the MIC in the assay on MRSA and in the assay with MSSA was 0.5 µg/mL (≈ 1.04 µM) each time. Consider `O=C(NC(=O)c1c(F)ccc(OCc2nc3cc(Cl)ccc3s2)c1F)c1ccccc1` [Example 9], for which the MIC in the assay with MSSA (setting [2]) was 0.5 µg/mL (≈ 1.09 µM). As for `O=C(CCl)NC(=O)c1c(F)ccc(OCc2nc3cc(Cl)ccc3s2)c1F` [Example 10], the figures for the MIC with MRSA and in the assay with MSSA were 0.25 µg/mL (≈ 0.58 µM) and 0.125 µg/mL (≈ 0.29 µM), respectively. Consider `CC1CCN(CC(=O)NC(=O)c2c(F)ccc(OCc3nc4cc(Cl)ccc4s3)c2F)CC1` [Example 11], for which the MIC in the assay with MRSA came to 1 µg/mL (≈ 2.02 µM); in the assay with MSSA it was 0.5 µg/mL (≈ 1.01 µM). The like results for `O=C(Cn1ccnc1)NC(=O)c1c(F)ccc(OCc2nc3cc(Cl)ccc3s2)c1F` [Example 12] were, in that order, 0.25 µg/mL (≈ 0.54 µM) and 0.125 µg/mL (≈ 0.27 µM).

Take `O=C(NC(=O)c1c(F)ccc(OCc2nc3cc(Cl)ccc3s2)c1F)c1ccc(CCl)cc1` [Example 13]: in the assay on MSSA (setting [1]), the MIC amounted to 4 µg/mL.

`O=C(c1c(F)ccc(OCc2nc3cc(Cl)ccc3s2)c1F)N(C(=O)C(F)(F)F)C(=O)C(F)(F)F` [Example 14]: the MIC with MSSA (setting [1]) stood at 2 µg/mL. In the case of `CS(=O)(=O)NC(=O)c1c(F)ccc(OCc2nc3cc(Cl)ccc3s2)c1F` [Example 15], the MIC with MRSA and in the assay with MSSA was 8 µg/mL (≈ 18.5 µM) in each case. Regarding `O=C(NCO)c1c(F)ccc(OCc2nc3cc(Cl)ccc3s2)c1F` [Example 16], the MIC in the assay on MRSA and with MSSA was 2 µg/mL (≈ 5.2 µM) each time. Regarding `O=C(NC(=O)c1c(F)ccc(OCc2nc3cc(Cl)ccc3s2)c1F)c1c(Cl)ccnc1Cl` [Example 18], the MIC with MRSA and in the assay with MSSA was greater than 64 µg/mL in each case.

Turning to `O=C(NC(=O)c1c(F)ccc(OCc2nc3cc(Cl)ccc3s2)c1F)c1ccnc(Cl)c1Cl` [Example 19], the MIC was 4 µg/mL (≈ 7.56 µM) in the assay on MRSA and greater than 64 µg/mL in the assay with MSSA. Regarding `CC(C)(C)C(=O)NC(=O)c1c(F)ccc(OCc2nc3cc(Cl)ccc3s2)c1F` [Example 20], the MIC in the assay on MRSA was 4 µg/mL (≈ 9.11 µM); with MSSA, greater than 64 µg/mL. `O=C(Cc1ccccc1)NC(=O)c1c(F)ccc(OCc2nc3cc(Cl)ccc3s2)c1F` [Example 21]: the MIC with MRSA is 2 µg/mL (≈ 4.23 µM); in the assay on MSSA, greater than 64 µg/mL. Take `O=C(NC(=O)C1CCC1)c1c(F)ccc(OCc2nc3cc(Cl)ccc3s2)c1F` [Example 22]: the figures for the MIC in the assay with MRSA and in the assay with MSSA were 2 µg/mL (≈ 4.58 µM) and 0.5 µg/mL (≈ 1.14 µM), respectively. For the compound `CC(C(=O)NC(=O)c1c(F)ccc(OCc2nc3cc(Cl)ccc3s2)c1F)c1ccccc1` (stereo not shown) [Example 23], the MIC with MRSA is 2 µg/mL (≈ 4.11 µM); with MSSA it was greater than 64 µg/mL. In the case of `O=C(NC(=O)c1c(F)ccc(OCc2nc3cc(Cl)ccc3s2)c1F)c1c(Cl)cccc1Cl` [Example 24], the MIC with MRSA and in the assay on MSSA was greater than 64 µg/mL throughout. For the compound `CCC(C)C(=O)NC(=O)c1c(F)ccc(OCc2nc3cc(Cl)ccc3s2)c1F` (stereo not shown) [Example 25], the values for the MIC in the assay with MRSA and in the assay with MSSA were 2 µg/mL (≈ 4.56 µM) and greater than 64 µg/mL, respectively.

On to `COC(=O)NC(=O)c1c(F)ccc(OCc2nc3cc(Cl)ccc3s2)c1F` [Example 26], for which the figures for the MIC with MRSA and in the assay with MSSA were 8 µg/mL (≈ 19.4 µM) and greater than 64 µg/mL, respectively. Taken in the same sequence, the figures for `CN(C)C(=O)NC(=O)c1c(F)ccc(OCc2nc3cc(Cl)ccc3s2)c1F` [Example 27] were greater than 64 µg/mL and greater than 64 µg/mL.

`CCOC(=O)NC(=O)c1c(F)ccc(OCc2nc3cc(Cl)ccc3s2)c1F` [Example 28]: the figures for the MIC in the assay on MRSA and with MSSA were 8 µg/mL (≈ 18.7 µM) and greater than 64 µg/mL, respectively. In the case of `COc1cccc(COC(=O)NC(=O)c2c(F)ccc(OCc3nc4cc(Cl)ccc4s3)c2F)c1` [Example 29], the MIC turned out to be 32 µg/mL (≈ 61.7 µM) in the assay on MRSA and 8 µg/mL (≈ 15.4 µM) in the assay on MSSA.

`CC(C)OC(=O)NC(=O)c1c(F)ccc(OCc2nc3cc(Cl)ccc3s2)c1F` [Example 30]: the MIC in the assay on MRSA is 2 µg/mL (≈ 4.54 µM); with MSSA it was greater than 64 µg/mL. Consider `O=C(NC(=O)c1c(F)ccc(OCc2nc3cc(Cl)ccc3s2)c1F)OCCF` [Example 31], for which the MIC in the assay with MRSA is 4 µg/mL (≈ 8.99 µM); in the assay with MSSA, greater than 64 µg/mL. Turning to `O=C(NC(=O)c1c(F)ccc(OCc2nc3cc(Cl)ccc3s2)c1F)Oc1ccccc1` [Example 32, Phenyl(3-((5-chlorobenzo[d]thiazol-2-yl)methoxy)-2,6-difluorobenzoyl)carbamate], the MIC with MRSA and in the assay with MSSA was 4 µg/mL (≈ 8.42 µM) each time. With `CN1CCN(C(=O)NC(=O)c2c(F)ccc(OCc3nc4cc(Cl)ccc4s3)c2F)CC1` [Example 33], the MIC with MRSA and with MSSA was greater than 64 µg/mL each time. Turning to `CN1CCC(OC(=O)NC(=O)c2c(F)ccc(OCc3nc4cc(Cl)ccc4s3)c2F)CC1` [Example 34, 1-methylpiperidin-4-yl (3-((5-chlorobenzo[d]thiazol-2-yl)methoxy)-2,6-difluorobenzoyl)carbamate], the MIC in the assay with MRSA came out at 4 µg/mL (≈ 8.07 µM); with MSSA, 32 µg/mL (≈ 64.5 µM).

Turning to `CN1CCN(C(=O)NC(=O)c2c(F)ccc(OCc3nc4cc(Cl)cnc4s3)c2F)CC1` [Example 35], the results for the MIC with MRSA and in the assay with MSSA were 2 µg/mL (≈ 4.15 µM) and 0.25 µg/mL (≈ 0.519 µM), respectively. Consider `CC(=O)NC(=O)c1c(F)ccc(OCc2cccc(-c3ccc(C(C)(C)C)cc3)c2)c1F` [Example 36], for which the MIC in the assay on MRSA and in the assay on MSSA was greater than 64 µg/mL in each case. In the case of `CC(C)(C)c1cc(C(=O)NC(=O)c2c(F)ccc(OCc3nc4cc(Cl)ccc4s3)c2F)cc(C(C)(C)C)c1` [Example 37], the MIC with MRSA is 8 µg/mL (≈ 14 µM); with MSSA, greater than 64 µg/mL.

Regarding `CC(=O)NC(=O)c1cccc(OCc2nc3cc(Cl)ccc3s2)c1` [Example 38], the MIC in the assay on MRSA and with MSSA was greater than 64 µg/mL each time. `CC(=O)NC(=O)c1c(N2CCN(C)CC2)ccc(OCc2nc3cc(Cl)ccc3s2)c1F` [Example 39]: the MIC in the assay with MRSA and in the assay on MSSA was greater than 64 µg/mL throughout.

`CCC(C)C(=O)NC(=O)c1c(F)ccc(OCc2nc3cc(Cl)cnc3s2)c1F` (stereo not shown) [Example 40]: the MIC in the assay with MRSA is 2 µg/mL (≈ 4.55 µM); in the assay on MSSA, greater than 64 µg/mL. `CN1CCC(C(=O)NC(=O)c2c(Cl)ccc(OCc3nc4cc(Cl)cnc4s3)c2F)CC1` [Example 41]: the values for the MIC with MRSA and in the assay on MSSA were 8 µg/mL (≈ 16.1 µM) and 4 µg/mL (≈ 8.04 µM), respectively.

As for `CN1CCC(C(=O)NC(=O)c2c(F)ccc(OC(CO)c3nc(-c4ccc(C(F)(F)F)cc4)c(Br)o3)c2F)CC1` (stereo not shown) [Example 42], the MIC with MRSA came to 16 µg/mL (≈ 25.3 µM); in the assay with MSSA it was 1 µg/mL (≈ 1.58 µM). On to `CCC(=O)N(C(=O)CC)C(=O)c1c(F)ccc(OCc2nc3cc(Cl)ccc3s2)c1F` [Example 43], for which the MIC in the assay with MRSA and in the assay on MSSA was 64 µg/mL (≈ 137 µM) throughout. In the case of `CN1CCC(C(=O)NC(=O)c2c(F)ccc(OCc3nc(-c4ccc(OC(F)(F)F)cc4)c(Br)o3)c2F)CC1` [Example 46], the values for the MIC with MRSA and in the assay with MSSA were 4 µg/mL (≈ 6.47 µM) and 1 µg/mL (≈ 1.62 µM), respectively. Turning to `CN1CCC(C(=O)NC(=O)c2c(F)ccc(OCc3nc(-c4ccc(OC(F)(F)F)cc4)ns3)c2F)CC1` [Example 47], the MIC in the assay on MRSA stood at 1 µg/mL (≈ 1.8 µM); in the assay with MSSA it was 0.0625 µg/mL (≈ 0.112 µM). Regarding `CC(C)c1csc(COc2ccc(F)c(C(=O)NC(=O)C3CCN(C)CC3)c2F)n1` [Example 48], the MIC in the assay with MRSA and with MSSA was 8 µg/mL (≈ 18.3 µM) throughout. As to `CN1CCC(C(=O)NC(=O)c2c(F)ccc(OCc3nc(-c4ccc(C(F)(F)F)cn4)c(Br)o3)c2F)CC1` [Example 49], the MIC in the assay with MRSA was determined as 16 µg/mL (≈ 26.5 µM); in the assay on MSSA, 2 µg/mL (≈ 3.31 µM). The like results for `CN1CCC(C(=O)NC(=O)c2c(F)ccc(OCc3nc(-c4ccc(C(F)(F)F)cn4)ns3)c2F)CC1` [Example 50] were, in that order, 4 µg/mL (≈ 7.39 µM) and 1 µg/mL (≈ 1.85 µM). Taken in the same sequence, the figures for `CNC(=O)NC(=O)c1c(F)ccc(OCc2nc3cc(Cl)ccc3s2)c1F` [Example 51] were greater than 64 µg/mL and greater than 64 µg/mL.

Source of the values: patent US10071082B2, “Antimicrobial agents” (Rutgers, The State University of New Jersey, priority 2013, dated 2018).
